Test: not given

| logP | Structure (SMILES) |
| --- | --- |
| 1.42 | Cc1nc2ccccc2c(=O)n1CC(=O)N1CCCCC1 |
| 0.44 | COC(=O)CNC(=O)Cn1c(C)nc2ccccc2c1=O |
| 0.45 | Cc1nc2ccccc2c(=O)n1CC(=O)N1CCOCC1 |
| 1.14 | CCN(CC)C(=O)Cn1c(C)nc2ccccc2c1=O |

Second part, the compound before the results:

| Structure (SMILES) | logP |
| --- | --- |
| COC(=O)c1ccc(C(=O)OC)c(NC(=O)Cn2c(C)nc3ccccc3c2=O)c1 | 3.53 |
| CCOC(=O)c1nc2ccccc2c(=O)[nH]1 | 0.64 |
| Cc1cc(C)nc(NS(=O)(=O)c2ccc(NC(=O)Cn3c(C)nc4ccccc4c3=O)cc2)n1 | 0.7 |
| Cc1nc2ccccc2c(=O)n1CC(=O)NNc1ccccc1 | 1.34 |
| Cc1nc2ccccc2c(=O)n1CC(=O)Nc1ccc(S(=O)(=O)NC(=N)N)cc1 | 0.09 |
| CCOc1ccc(NC(=O)Cn2c(C)nc3ccccc3c2=O)cc1 | 2.19 |
| COC(=O)c1cc(NC(=O)Cn2c(C)nc3ccccc3c2=O)cc(C(=O)OC)c1 | 2.98 |
| Cc1nc2ccccc2c(=O)n1CC(=O)NCc1ccco1 | 1.24 |
| Cc1nc2ccccc2c(=O)n1CC(=O)NCc1ccccc1 | 1.78 |
| Cc1nc2ccccc2c(=O)n1CC(=O)Nc1c(C)n(C)n(-c2ccccc2)c1=O | 1.07 |

Test: method code SF, from PMID: 10544519

| logP | Structure (SMILES) |
| --- | --- |
| 1.46 | COC(=O)Cn1c(C)nc2ccccc2c1=O |
| 0.08 | Cc1nc2ccccc2c(=O)n1CC(=O)O |
| 0.64 | Cc1nc2ccccc2c(=O)n1CCC(=O)O |
